The text below walks through data of ChEMBL document CHEMBL6087463, “Discovery of Novel 4,5,6,7-Tetrahydro-7H-pyrazolo[3,4-c]pyridin-7-one Derivatives as Orally Efficacious ATX Allosteric Inhibitors for the Treatment of Pulmonary Fibrosis” (J Med Chem, 2025).

As usually defined, the IC50 is the concentration needed to halve the response being measured.

The structures appear in SMILES notation.

Assay [1] deals with Voltage-gated inwardly rectifying potassium channel KCNH2 (Homo sapiens, UniProt Q12809). As to the kind of experiment: Inhibition of hERG expressed in CHO cells by automated patch-clamp assay. In kind it is toxicity, cell-based.
Assay [2] deals with Autotaxin (Homo sapiens, UniProt Q13822). As to the kind of experiment: Inhibition of human ATX using LPC16:0 as substrate preincubated with compound for 20 mins followed by substrate addition and measured after 1 hr by fluorescence based microplate analysis.

Sequence of Voltage-gated inwardly rectifying potassium channel KCNH2 (Q12809 whole entry): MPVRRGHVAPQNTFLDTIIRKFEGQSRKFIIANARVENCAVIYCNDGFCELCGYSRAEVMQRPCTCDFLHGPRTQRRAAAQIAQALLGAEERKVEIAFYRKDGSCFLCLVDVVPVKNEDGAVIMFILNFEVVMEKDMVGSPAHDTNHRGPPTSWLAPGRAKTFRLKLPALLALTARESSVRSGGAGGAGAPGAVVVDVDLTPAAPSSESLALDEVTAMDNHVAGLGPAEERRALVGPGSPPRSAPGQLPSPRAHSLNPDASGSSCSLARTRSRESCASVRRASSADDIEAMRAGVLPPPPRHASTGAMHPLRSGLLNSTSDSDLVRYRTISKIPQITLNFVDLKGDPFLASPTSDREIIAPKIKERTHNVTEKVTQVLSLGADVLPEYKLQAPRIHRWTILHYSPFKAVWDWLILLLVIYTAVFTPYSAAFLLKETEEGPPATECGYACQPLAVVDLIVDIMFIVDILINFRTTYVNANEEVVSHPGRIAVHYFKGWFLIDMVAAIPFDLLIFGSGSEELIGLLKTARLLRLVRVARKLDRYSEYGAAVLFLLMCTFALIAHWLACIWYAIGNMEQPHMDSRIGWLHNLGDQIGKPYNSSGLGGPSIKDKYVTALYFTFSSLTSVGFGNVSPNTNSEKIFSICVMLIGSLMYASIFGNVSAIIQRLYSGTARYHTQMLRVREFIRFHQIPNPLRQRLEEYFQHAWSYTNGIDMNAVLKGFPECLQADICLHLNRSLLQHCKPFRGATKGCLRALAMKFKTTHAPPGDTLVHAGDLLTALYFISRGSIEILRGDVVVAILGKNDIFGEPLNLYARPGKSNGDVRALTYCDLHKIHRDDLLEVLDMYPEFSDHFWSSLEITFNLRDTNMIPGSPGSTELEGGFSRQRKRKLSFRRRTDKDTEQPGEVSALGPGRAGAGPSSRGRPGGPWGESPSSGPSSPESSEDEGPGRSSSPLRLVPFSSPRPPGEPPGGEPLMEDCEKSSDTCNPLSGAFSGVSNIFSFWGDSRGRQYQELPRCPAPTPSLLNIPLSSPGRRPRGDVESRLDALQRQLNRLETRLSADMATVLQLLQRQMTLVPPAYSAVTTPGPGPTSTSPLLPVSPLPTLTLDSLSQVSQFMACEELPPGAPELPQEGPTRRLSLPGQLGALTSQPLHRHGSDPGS

Turning to `COCn1cc(-n2nc(C(=O)Nc3ccccc3C(=O)O)c3c2C(=O)N(c2ccccc2)CC3)cn1`, the IC50 in assay [1] was more than 30 µM. Regarding `CC(C)n1cc(-n2nc(C(=O)NN3CCCC(C(=O)O)C3)c3c2C(=O)N(c2ccccc2)CC3)cn1` (configuration not stated), in assay [2], the half-maximal inhibitory concentration (IC50) amounted to 3.26 µM.
